Data reported in patent US20050227266A1, “Biomarker:compound correlations in cancer diagnosis and therapy” (priority 2004, published 2005).

Test system: NCI60 cell lines
Details: not told
Procedure: Compounds are tested according to a standard protocol (dtp.nci.nih.gov/branches/btb/ivclsp.html, reproduced as Appendix B), and GI50 data (i.e., data indicating the concentration of a compound that inhibits growth of a particular cell line by 50% after 48 hours of exposure) for many compounds, including a set of 171 so-called Standard Agents (dtp.nci.nih.gov/docs/cancer/searches/standard_agent.html, reproduced as Appendix C) are made publicly available.
Inventive biomarker:compound correlations are established by comparing the expression/activity expression and compound toxicity datasets. […] Such comparisons can quantify the association between the variables, e.g., using a Pearson or Spearman correlation. […] For example, to aid in the identification of non-linear relationships between compound toxicity and presence of a biomarker (e.g., a threshold response), values above or below a certain limit may be given a common value, or weighted, before the comparison is measured.
The present inventors established a gene expression profile for each of the 59 publicly-available NCI60 cell lines. […] Specifically, cDNAs that were detectable in fewer than 80% of the cell lines were discarded; approximately 17,000 unique genes were left whose measurements were recorded. […]

## CC(=O)O[C@H]1C(=O)[C@@]2(C)[C@H]([C@H](OC(=O)c3ccccc3)[C@]3(O)C[C@H](OC(=O)[C@H](O)[C@@H](NC(=O)c4ccccc4)c4ccccc4)C(C)=C1C3(C)C)[C@]1(OC(C)=O)CO[C@@H]1C[C@@H]2O [Paclitaxol]
  correlation of toxicity pattern with ABCB1 (PGP) gene expression: highest negative correlation
